From PMC3072459 (Journal of medicinal chemistry, 2011)

Tests used:
[1] = molecular target: nNOS in 293T cells overexpressing nNOS (293T/nNOS cells) (Rattus norvegicus, UniProt P29476); test: Cell-based nNOS inhibition assay; conditions: for activity in the cell-based assay (in words): A23187 (5 μM), 8 h
[2] = rodent in vivo studies; cited from earlier work
rat nNOS = rat nNOS (Rattus norvegicus, UniProt P29476); test: NOS inhibition, hemoglobin; assay type: biochemical

## Cc1cc(N)nc(CCc2cncc(CCc3cc(C)nc(N)c3)c2)c1 [3k, 4-(2-(5-(2-(6-Amino-4-methylpyridin-2-yl)ethyl)pyridin-3-yl)ethyl)-6-methylpyridin-2-amine]
[1]
  membrane penetration ability (in words, from cell-based assay): good membrane penetration ability

## Cc1cc(N)nc(C[C@@H]2CNC[C@@H]2NCCNCCc2cccc(F)c2)c1 [compound 2]
[2]
  ability to penetrate the blood brain barrier (BBB): poor ability to penetrate the blood brain barrier

## Cc1cc(N)nc(CCc2cccc(CCc3cc(C)nc(N)c3)c2)c1 [3h, 4-(3-(2-(6-Amino-4-methylpyridin-2-yl)ethyl)phenethyl)-6-methylpyridin-2-amine]
[1]
  activity in the cell-based assay (in words): almost no activity

## Cc1cc(N)nc(CCc2cccc(CCc3cc(C)cc(N)n3)c2)c1 [3g, 6,6'-(2,2'-(1,3-Phenylene)bis(ethane-2,1-diyl))bis(4-methylpyridin-2-amine)]
[1]
  activity in the cell-based assay (in words): almost no activity

## Cc1cc(CCc2cccc(CCc3cc(C)nc(N)c3)c2)cc(N)n1 [3i, 4,4'-(2,2'-(1,3-Phenylene)bis(ethane-2,1-diyl))bis(6-methylpyridin-2-amine)]
Rat nNOS
  binding / inhibition of nNOS (in words): binds rather poorly

## Cc1cc(N)nc(CCc2ccc3ccc(CCc4cc(C)nc(N)c4)cc3c2)c1 [3d, 4-(2-(7-(2-(6-Amino-4-methylpyridin-2-yl)ethyl)naphthalen-2-yl)ethyl)-6-methylpyridin-2-amine]
Rat nNOS
  binding / inhibition of nNOS (in words): poor inhibitor

## Cc1cc(N)nc(CCc2ccc3cc(CCc4cc(C)cc(N)n4)ccc3c2)c1 [3b, 6,6'-(2,2'-(Naphthalene-2,6-diyl)bis(ethane-2,1-diyl))bis(4-methylpyridin-2-amine)]
Rat nNOS
  binding / inhibition of nNOS (in words): sub-micromolar binding affinity

## Cc1cc(N)nc(C[C@H]2CNC[C@H]2NCCNCCc2cccc(F)c2)c1 [compound 1]
[2]
  ability to penetrate the blood brain barrier (BBB): poor ability to penetrate the blood brain barrier

## Cc1cc(N)nc(CCc2ccc3ccc(CCc4cc(C)cc(N)n4)cc3c2)c1 [3c, 6,6'-(2,2'-(Naphthalene-2,7-diyl)bis(ethane-2,1-diyl))bis(4-methylpyridin-2-amine)]
Rat nNOS
  binding / inhibition of nNOS (in words): sub-micromolar binding affinity

## Cc1cc(C)nc(NCc2ccc3cc(CNc4cc(C)cc(C)n4)ccc3c2)c1 [3a, N,N'-(Naphthalene-2,6-diylbis(methylene))bis(4,6-dimethylpyridin-2-amine)]
Rat nNOS
  binding / inhibition of nNOS (in words): poor binding

## Cc1cc(N)nc(CCc2cncc(CCc3cc(C)cc(N)n3)c2)c1 [3j, 6,6'-(2,2'-(Pyridine-3,5-diyl)bis(ethane-2,1-diyl))bis(4-methylpyridin-2-amine)]
[1]
  membrane penetration ability (in words, from cell-based assay): good membrane penetration ability
